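Test compounds were applied to cells in 96-well plates for 48 hours at 5 doses. TGI: total growth inhibition.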
Tests used:
Assay in all cases: NCI tumour cell line growth inhibition, 48 h
LOX IMVI melanoma = test system: LOX IMVI melanoma
HL-60(TB) leukemia = test system: HL-60(TB) leukemia
PC-3 prostate = test system: PC-3 prostate
HCC-2998 colon = test system: HCC-2998 colon
NCI-H460 lung = test system: NCI-H460 lung
UO-31 renal = test system: UO-31 renal
SK-MEL-5 melanoma = test system: SK-MEL-5 melanoma
ACHN renal = test system: ACHN renal
MDA-MB-435 = test system: MDA-MB-435
A498 renal = test system: A498 renal

SMILES	TGI (LOX IMVI melanoma) [µM]	TGI (HL-60(TB) leukemia) [µM]	TGI (PC-3 prostate) [µM]	TGI (HCC-2998 colon) [µM]	TGI (NCI-H460 lung) [µM]	TGI (UO-31 renal) [µM]	TGI (SK-MEL-5 melanoma) [µM]	TGI (ACHN renal) [µM]	TGI (MDA-MB-435) [µM]	TGI (A498 renal) [µM]
CCOC(=O)C1CN(C2CC2)CCC1=O (stereo unspecified)	> 100	> 100	> 100	> 100	> 100	> 100	> 100	> 100	> 100	–
NC(=O)c1ncn2c1NC(=O)CC2	> 100	> 100	–	> 100	> 100	> 100	> 100	–	–	> 100
COC(=O)[C@H](Cc1ccccc1)NC(=O)c1ccc(CNC(=O)/C=C/c2cccc(Oc3ccccc3)c2)cc1	–	–	> 100	89.7	> 100	> 100	36.9	40.2	28.3	51.7
O=C(OCc1ccccc1)C(Cc1ccccc1)N(Cc1ccccc1)Cc1ccccc1 (stereo unspecified)	–	> 100	–	> 100	> 100	> 100	> 100	> 100	–	> 100
COP(=O)(OC)C12CCOCCN1c1ccccc1C2=O (stereo unspecified)	–	> 100	> 100	> 100	> 100	> 100	> 100	> 100	> 100	> 100
COc1ccc(N=NC(=Nc2ccc(F)cc2)c2ccc(N(CCC#N)CCC#N)cc2)cc1	–	–	58.9	51.5	52	> 100	> 100	> 100	> 100	76.3
O=C1CCc2ccc3c(c21)CC1(Cc2ccccc2C1)C3	20.1	7.03	> 100	49.3	20.6	34	11.4	> 100	> 100	–
CC(C)(C)OC(=O)n1c(-c2ccccc2F)cc(=O)c2cc3c(cc21)OCO3	–	–	> 100	> 32.3	> 70.8	–	1.2	> 58.7	> 100	> 94.7
COc1cc2c(cc1OC)C13CC[N+]4(C)CC5=CCOC6CC(=O)N2C1C6C5CC34[O-] (stereo unspecified)	> 100	> 100	> 100	–	> 100	> 100	> 100	> 100	> 100	> 100
CCCCN(CCCC)C(=C(C(Cl)=C(Cl)Cl)[N+](=O)[O-])N(CCCC)CCCC	–	–	> 100	–	> 100	> 100	> 100	> 100	> 100	> 100
CCOC(=O)C1(C(=O)OCC)CCCN1C(=O)[C@H](CNC(=O)OC(C)(C)C)NC(=O)OCc1ccccc1	> 100	–	> 100	> 100	> 100	> 100	> 100	> 100	> 100	–
CCCCC#CS(=O)(=O)C(F)(F)F	> 100	62.9	–	> 31.6	> 100	> 100	> 100	–	–	> 100
COc1cc(CNc2nc3cc(C(F)(F)F)ccc3nc2-c2ccccc2)cc(OC)c1OC	> 100	70	–	52.4	> 100	> 100	73.3	> 100	> 100	–
O=C(CNCc1ccccc1)Oc1c(Cl)c(Cl)c(Cl)c(Cl)c1Cl	74.4	52.4	48.1	53.9	> 100	52.1	–	51.1	> 100	–
COC(=O)C1=C(O)C(C(=O)OC)[C@@]2(O)[C@@H](C(=O)OC)[C@H](C)[C@@H](C)[C@@H]1[C@@H]2C(=O)OC (stereo partly specified)	> 100	> 100	–	> 100	> 100	> 100	–	> 100	39.2	> 100
COc1ccc2c(c1)CCN=C2c1ccccc1CCCCl	–	> 100	> 100	24.9	28.5	26.7	13.3	64.9	> 100	> 100
OC1(c2ccc(Cl)cc2)c2ccc(CN3CCCC3)cc2C2=NCCN21 (stereo unspecified)	29.1	29.1	27.2	–	29.1	27.5	22.3	30.3	23.5	25.8
Nc1nc(Nc2ccccc2)sc1C(=O)c1c[nH]c2ccccc12	64.8	46.2	25.3	–	13.6	13.1	25.1	62.2	23.2	30.6
CCOC(=O)C(C)c1nc2c(Cl)c3ncccc3cc2[nH]c1=O (stereo unspecified)	> 100	–	> 100	–	–	> 100	> 100	> 100	> 100	> 100
CC(C)CCn1nc(N)c2nc3ccccc3nc21	> 100	> 100	> 100	> 100	> 100	> 100	–	> 100	> 100	> 100
CSC(SC)=C1C(=O)N(c2ccccc2)N=C1C	> 100	–	> 100	> 100	82.4	–	24.3	> 100	–	90.5
O=C(CCc1cccc(O)c1)NCCCNC(=O)CCc1cccc(O)c1	> 100	–	> 100	> 100	> 100	> 100	> 100	> 100	> 100	> 100
COc1cc(C=C2C(=O)NC(=S)NC2=O)cc(OC)c1OC	> 100	> 100	> 100	> 100	> 100	> 100	> 100	> 100	> 100	–
O=C(O)CSC(NC(=O)C(C(F)(F)F)C(F)(F)F)(C(F)(F)F)C(F)(F)F	> 100	> 100	> 100	> 100	–	> 100	> 100	> 100	> 100	> 100

Reference: PubChem BioAssay (NCI)
